IC50 data for 27 compounds are collected here from US10519177B2, “Heterocyclic compounds and uses thereof” (Plexxikon Inc., priority 2013, dated 2019).

The assay concerns the target BRD4-BD1 (44-164) (Homo sapiens (Human), UniProt O60885). Nature of the assay: Alphascreen binding assay BRD4-BD1. Conditions: BRD4(1) H4; read-out: Biochemical activity (IC50 μM) BRD4(1) H4. Here is the method:
Binding of compounds of formula (I) with bromodomain 2, 3 4 was assessed using Alphascreen binding assay. The inhibition of the interaction between bromodomain and its acetylated target protein (Filippakopoulos P et al. 2012) was measured quantitatively using recombinant BRD proteins, an acetylated Histone 4 peptide and AlphaScreen™ technology. In absence of inhibition the BRD protein bound to AlphaScreen™ nickel chelate acceptor beads can interact with the acetylated Histone 4 peptide which is immobilized by the AlphaScreen™ Streptavidin coated beads. This interaction brings donor and acceptor beads in proximity. The close proximity allows the singlet oxygen produced by laser excitation of the donor beads to reach the acceptor beads and generate a luminescence signal.
Recombinant human bromodomains containing the N-terminal bromodomain (BRD2-BD1 (71-194), BRD3-BD1 (24-144) and BRD4-BD1 (44-164)) or dual bromodomains (BRD4-BD12 (1-477), BRD4-BD12 (1-472)) were prepared and purified as described in protein expression and purification session. The peptide is human Histone H41-21K5AcK8AcK12AcK16Ac-Biotin (Anaspec CA, USA).
Protocol for BRD2, BRD3 and BRD4 assay: All components are prepared in buffer composed of 50 mM HEPES pH 7.5, 100 mM NaCl, 0.01% bovine serum albumin (“BSA”), 0.01% Triton X-100, 2 mM dithiothreitol (“DTT”). 7 μL of Bromodomain protein and 7 μL of peptide are added to wells containing 1 μL of various concentrations of test compounds of formula (I) or DMSO vehicle in an Alphaplate (PerkinElmer GA, USA) and incubated for 1 hour at room temperature. 4 μL donor and acceptor bead mixture is then added with final concentrations of 7.5 μg/ml. 30 minutes after bead addition, Alpha signal is read on the Envision spectrometer (λEx 680 nm, λEm 520-620 nm). Final concentrations of bromodomain proteins and peptide are as shown below.
All data was normalized to the mean of 16 high and 16 low control wells on each plate. A four parameter curve fit of the following formula was then applied: Y=a+(b−a)/(1+(x/c)^d) Where ‘a’ is the minimum, ‘b’ is the maximum, ‘c’ is the pIC50 and ‘d’ is the Hill slope. Protein Expression and Purification
Recombinant human bromodomains containing the N-terminal bromodomain (BRD2-BD1 (71-194), BRD3-BD1 (24-144) and BRD4-BD1 (44-164)) or dual bromodomains (BRD4-BD12 (1-477), BRD4-BD12 (1-472)) were expressed in E. coli cells (in a modified pET vector) with an N-terminal six-His tag and purified using a combination of both IMAC (Ni-affinity) and size exclusion chromatography steps.
Recombinant BRD proteins were expressed using the E. coli strain BL21-CodonPlus (DE3) (Agilent Technologies CA, USA). Cells were grown in Terrific Broth (TB) media to an OD600 of 1.2 at 37° C. at which temperature was reduced to 25° C., protein was induced with 1.0 mM ispropyl-β-D-thiogalactopyranoside (“IPTG”) for 12-18 hours and harvested by centrifugation at 8000×g for 20 minutes. Cells were re-suspended in 0.1M K2PO4 pH 8.0, 250 mM NaCl, 10% Glycerol, 0.75% NP-40, 25 mM Imidazole, 5 mM beta-mercaptoethanol (“BME”) with 0.2 mg/ml Lysosyme, 2.0 mM phenylmethanesulfonyl fluoride (“PMSF”), 25 μg/ml DNAse I, incubated on ice for 30 minutes and lyzed with a cell disruptor (MicroFluidics MA, USA). The lysate was clarified by centrifugation at 20,000×g for 2 hours. The protein was captured with Ni-NTA resin (Life Technologies, USA). Contaminating proteins were washed off with 25 mM Tris-HCl pH 8.3, 250 mM NaCl, 12% Glycerol and 50 mM Imidazole. Following 3× wash steps, protein was eluted step wise using a 50 mM HEPES pH 7.5, 500 mM NaCl and 400 mM Imidazole. The protein was further purified using Gel Filtration column 26/600 Superdex 200 (GE Biosciences NJ, USA) in 50 mM HEPES pH 7.5, 250 mM NaCl. The protein was aliquoted and flash-frozen in liquid Nitrogen.

Take `CCc1[nH]c2ncc(-c3c(C)noc3C)cc2c1C(O)c1cccc(OC(F)(F)F)c1` (stereo not drawn) [P-0043, [5-(3,5-dimethylisoxazol-4-yl)-2-ethyl-1H-pyrrolo[2,3-b]pyridin-3-yl]-[3-(trifluoromethoxy)phenyl]methanol]: the IC50 (usually the midpoint of a concentration-inhibition curve) is less than 1 µM.

On to `CCc1[nH]c2ncc(-c3c(C)noc3C)cc2c1C(O)C1CCC(F)(F)CC1` (stereo not drawn) [P-0044, (4,4-difluorocyclohexyl)-[5-(3,5-dimethylisoxazol-4-yl)-2-ethyl-1H-pyrrolo[2,3-b]pyridin-3-yl]methanol], for which the IC50 was less than 1 µM.

On to `CCc1[nH]c2ncc(-c3c(C)noc3C)cc2c1C(OC)C1CCC(F)(F)CC1` (stereo not drawn) [P-0045, 4-[3-[(4,4-difluorocyclohexyl)-methoxy-methyl]-2-ethyl-1H-pyrrolo[2,3-b]pyridin-5-yl]-3,5-dimethyl-isoxazole], for which the 50% inhibitory concentration (IC50) is less than 1 µM.

As for `Cc1noc(C)c1-c1cnc2[nH]cc(Cc3ccccc3OC(F)F)c2c1` [P-0047, 4-[3-[[2-(difluoro-methoxy)phenyl]methyl]-1H-pyrrolo[2,3-b]pyridin-5-yl]-3,5-dimethyl-isoxazole], the half-maximal inhibitory concentration (IC50) is less than 1 µM.

As for `Cc1noc(C)c1-c1cnc2[nH]cc(Cc3cccc4c3OC(F)(F)O4)c2c1` [P-0048, 4-[3-[(2,2-difluoro-1,3-benzodioxol-4-yl)methyl]-1H-pyrrolo[2,3-b]pyridin-5-yl]-3,5-dimethyl-isoxazole], the IC50 was less than 1 µM.

Turning to `CCc1[nH]c2ncc(-c3c(C)noc3C)cc2c1Cc1ccccc1Cl` [P-0049, 4-[3-[(2-chlorophenyl)methyl]-2-ethyl-1H-pyrrolo[2,3-b]pyridin-5-yl]-3,5-dimethyl-isoxazole], the IC50 was less than 1 µM.

For the compound `CCc1[nH]c2ncc(-c3c(C)noc3C)cc2c1CC1CCC(F)(F)CC1` [P-0051, 4-[3-[(4,4-difluoro-cyclohexyl)methyl]-2-ethyl-1H-pyrrolo[2,3-b]pyridin-5-yl]-3,5-dimethyl-isoxazole], the IC50 is less than 1 µM.

Take `Cc1noc(C)c1-c1cnc2ccn(S(=O)(=O)c3ccccc3F)c2c1` [P-0060, 4-[1-(2-fluorophenyl)sulfonylpyrrolo[3,2-b]pyridin-6-yl]-3,5-dimethyl-isoxazole]: the half-maximal inhibitory concentration (IC50) was less than 1 µM.

Regarding `Cc1ccc(S(=O)(=O)n2ccc3ncc(-c4c(C)noc4C)cc32)s1` [P-0062, 3,5-dimethyl-4-[1-[(5-methyl-2-thienyl)sulfonyl]pyrrolo[3,2-b]pyridin-6-yl]isoxazole], the IC50 was less than 1 µM.

`Cc1noc(C)c1-c1cnc2[nH]cc(C(C)(C)c3ccc(F)cc3)c2c1` [P-0063, 4-[3-[1-(4-fluorophenyl)-1-methyl-ethyl]-1H-pyrrolo[2,3-b]pyridin-5-yl]-3,5-dimethyl-isoxazole]: the half-inhibitory concentration (IC50) is less than 1 µM.

For the compound `Cc1noc(C)c1-c1cnc2[nH]cc(C(c3ccc(F)cc3)C3CC3)c2c1` (stereo not drawn) [P-0064, 4-[3-[cyclopropyl-(4-fluorophenyl)methyl]-1H-pyrrolo[2,3-b]pyridin-5-yl]-3,5-dimethyl-isoxazole], the IC50 is less than 1 µM.

As to `Cc1noc(C)c1-c1cnc2ccn(S(=O)(=O)C3CCCCC3)c2c1` [P-0066, 4-(1-cyclohexylsulfonyl-pyrrolo[3,2-b]pyridin-6-yl)-3,5-dimethyl-isoxazole], the IC50 was less than 1 µM.

As to `Cc1noc(C)c1-c1cnc2ccn(S(=O)(=O)N3CCCCC3)c2c1` [P-0067, 3,5-dimethyl-4-[1-(1-piperidylsulfonyl)pyrrolo[3,2-b]pyridin-6-yl]isoxazole], the IC50 is less than 1 µM.

Turning to `COC(c1cn(S(=O)(=O)C2CCCCC2)c2cc(-c3c(C)noc3C)cnc12)C1CC1` (stereo not drawn) [P-0071, 4-[1-cyclohexyl-sulfonyl-3-[cyclopropyl(methoxy)methyl]pyrrolo[3,2-b]pyridin-6-yl]-3,5-dimethyl-isoxazole], the IC50 was less than 1 µM.

With `COC(c1c[nH]c2ncc(-c3c(C)noc3C)cc12)C1CCC(F)(F)CC1` (stereo not drawn) [P-0073, 4-[3-[(4,4-difluorocyclohexyl)-methoxy-methyl]-1H-pyrrolo[2,3-b]pyridin-5-yl]-3,5-dimethyl-isoxazole], the concentration for half-maximal inhibition (IC50) was less than 1 µM.

With `Cc1noc(C)c1-c1cnc2c(CC3CC3)cn(S(=O)(=O)C3CCCCC3)c2c1` [P-0075, 4-[1-cyclohexylsulfonyl-3-(cyclopropylmethyl)pyrrolo[3,2-b]pyridin-6-yl]-3,5-dimethyl-isoxazole], the IC50 is less than 1 µM.

Regarding `Cc1noc(C)c1-c1cnc2c(I)cn(S(=O)(=O)c3ccccc3)c2c1` [P-0076, 4-[1-(benzenesulfonyl)-3-iodo-pyrrolo[3,2-b]pyridin-6-yl]-3,5-dimethyl-isoxazole], the IC50 was less than 1 µM.

With `Cc1noc(C)c1-c1cnc2c(-c3ccccc3)cn(S(=O)(=O)c3ccccc3)c2c1` [P-0077, 4-[1-(benzenesulfonyl)-3-phenyl-pyrrolo[3,2-b]pyridin-6-yl]-3,5-dimethyl-isoxazole], the IC50 is less than 1 µM.

Consider `CCS(=O)(=O)n1cc(C(OC)C2CCC(F)(F)CC2)c2cc(-c3c(C)noc3C)cnc21` (stereo not drawn) [P-0078, 4-[3-[(4,4-difluoro-cyclohexyl)-methoxy-methyl]-1-ethylsulfonyl-pyrrolo[2,3-b]pyridin-5-yl]-3,5-dimethyl-isoxazole], for which the half-maximal inhibitory concentration (IC50) is less than 1 µM.

As for `Cc1noc(C)c1-c1cnc2c(-c3cccnc3)cn(S(=O)(=O)c3ccccc3)c2c1` [P-0084, 4-[1-(benzenesulfonyl)-3-(3-pyridyl)pyrrolo[3,2-b]pyridin-6-yl]-3,5-dimethyl-isoxazole], the IC50 was less than 1 µM.

In the case of `Cc1noc(C)c1-c1cnc2[nH]cc(C(c3ccc(F)cc3)(C3CC3)C3CC3)c2c1` [P-0085, 4-[3-[dicyclopropyl-(4-fluorophenyl)methyl]-1H-pyrrolo[2,3-b]pyridin-5-yl]-3,5-dimethyl-isoxazole], the 50% inhibitory concentration (IC50) is less than 1 µM.

On to `COC(c1c[nH]c2ncc(-c3c(C)noc3C)cc12)C1CCS(=O)(=O)CC1` (stereo not drawn) [P-0089, 4-[[5-(3,5-dimethylisoxazol-4-yl)-1H-pyrrolo[2,3-b]pyridin-3-yl]-methoxy-methyl]thiane 1,1-dioxide], for which the 50% inhibitory concentration (IC50) was less than 1 µM.

For `Cc1noc(C)c1-c1cnc2c(c1)c(C(O)C1CCSCC1)cn2S(=O)(=O)c1ccccc1` (stereo not drawn) [P-0090, [1-(benzenesulfonyl)-5-(3,5-dimethylisoxazol-4-yl)pyrrolo[2,3-b]pyridin-3-yl]-tetrahydrothiopyran-4-yl-methanol], the IC50 was less than 1 µM.

Take `Cc1noc(C)c1-c1cnc2[nH]cc(CC3CCS(=O)(=O)CC3)c2c1` [P-0098, 4-[[5-(3,5-dimethylisoxazol-4-yl)-1H-pyrrolo[2,3-b]pyridin-3-yl]methyl]thiane 1,1-dioxide]: the half-maximal inhibitory concentration (IC50) was less than 1 µM.

Consider `Cc1noc(C)c1-c1cnc2c(-c3cnc(C4CC4)nc3)cn(S(=O)(=O)C3CCCC3)c2c1` [P-0103, 4-[1-cyclopentyl-sulfonyl-3-(2-cyclopropylpyrimidin-5-yl)pyrrolo[3,2-b]pyridin-6-yl]-3,5-dimethyl-isoxazole], for which the IC50 is less than 1 µM.

With `COc1ncc(-c2cn(S(=O)(=O)c3ccccc3)c3cc(-c4c(C)noc4C)cnc23)cn1` [P-0104, 4-[1-(benzenesulfonyl)-3-(2-methoxypyrimidin-5-yl)pyrrolo[3,2-b]pyridin-6-yl]-3,5-dimethyl-isoxazole], the half-inhibitory concentration (IC50) was less than 1 µM.

Consider `COc1ncc(-c2cn(S(=O)(=O)C3CCCC3)c3cc(-c4c(C)noc4C)cnc23)cn1` [P-0105, 4-[1-cyclopentylsulfonyl-3-(2-methoxypyrimidin-5-yl)pyrrolo[3,2-b]pyridin-6-yl]-3,5-dimethyl-isoxazole], for which the IC50 is less than 1 µM.
